MIC data for 17 molecules are collected here from ChEMBL document CHEMBL1127136, “Vinylogous vs arylogous isocephems” (1993).

Each structure is given as a SMILES string. Values after ≈ are worked out from the molar mass of the structure shown.

Usually MIC stands for the lowest concentration found to suppress growth.

The test system of one test is Staphylococcus sp. Nature of the test: Antibacterial activity against staphylococci was determined. The class given is functional.
A further test relates to Enterobacteriaceae. Nature of the test: Antibacterial activity against enterobacteriaceae was determined. The class given is functional.

Turning to `CO/N=C(/C(=O)N[C@@H]1C(=O)N2C(C(=O)O)=C(/C=C/CSc3nnnn3C)SC[C@H]12)c1csc(N)n1`, the MIC was determined as 2.5 µg/mL (≈ 4.65 µM) against Staphylococcus sp. and 0.14 µg/mL (≈ 0.26 µM) in the test with Enterobacteriaceae.
Turning to `CO/N=C(/C(=O)N[C@@H]1C(=O)N2C(C(=O)[O-])=C(C[n+]3cccc4ccsc43)SC[C@H]12)c1csc(N)n1`, the MIC with Staphylococcus sp. came out at 0.76 µg/mL (≈ 1.43 µM); in the test on Enterobacteriaceae it was 0.12 µg/mL (≈ 0.226 µM).
For the molecule `CO/N=C(/C(=O)N[C@@H]1C(=O)N2C(C(=O)[O-])=C(C[N+](C)(C)C)SC[C@H]12)c1csc(N)n1`, the MIC in the test on Staphylococcus sp. amounted to 10 µg/mL (≈ 22 µM); in the test on Enterobacteriaceae, 0.28 µg/mL (≈ 0.616 µM).
For the molecule `CO/N=C(/C(=O)N[C@@H]1C(=O)N2C(C(=O)[O-])=C(/C=C/c3ccc(C[n+]4ccccc4)s3)SC[C@H]12)c1csc(N)n1`, the values for the minimal inhibitory concentration (MIC) with Staphylococcus sp. and against Enterobacteriaceae were 3.1 µg/mL (≈ 5.32 µM) and 3.8 µg/mL (≈ 6.52 µM), respectively.
As for `CO/N=C(/C(=O)N[C@@H]1C(=O)N2C(C(=O)[O-])=C(C[n+]3ccccc3)SC[C@H]12)c1csc(N)n1`, the figures for the MIC in the test with Staphylococcus sp. and in the test with Enterobacteriaceae were 2.5 µg/mL (≈ 5.27 µM) and 0.2 µg/mL (≈ 0.421 µM), respectively.
For `CO/N=C(/C(=O)N[C@@H]1C(=O)N2C(C(=O)[O-])=C(/C=C/c3ccc(C[n+]4ccccc4)cc3)SC[C@H]12)c1csc(N)n1`, the MIC was found to be 6.3 µg/mL (≈ 10.9 µM) in the test with Staphylococcus sp. and 3.9 µg/mL (≈ 6.76 µM) against Enterobacteriaceae.
For `CO/N=C(/C(=O)N[C@@H]1C(=O)N2C(C(=O)O)=C(CSc3nnnn3C)SC[C@H]12)c1csc(N)n1`, in that order: 15.9 µg/mL (≈ 31.1 µM) and 0.4 µg/mL (≈ 0.782 µM).
Turning to `CO/N=C(/C(=O)N[C@@H]1C(=O)N2C(C(=O)O)=C(/C=C/C=C/CSc3nnnn3C)SC[C@H]12)c1csc(N)n1`, the MIC stood at 5 µg/mL (≈ 8.87 µM) against Staphylococcus sp. and 1.5 µg/mL (≈ 2.66 µM) with Enterobacteriaceae.
`CO/N=C(/C(=O)N[C@@H]1C(=O)N2C(C(=O)[O-])=C(/C=C/c3ccccc3C[n+]3ccccc3)SC[C@H]12)c1csc(N)n1`: the MIC in the test with Staphylococcus sp. was determined as 0.95 µg/mL (≈ 1.65 µM); in the test on Enterobacteriaceae, 7.3 µg/mL (≈ 12.7 µM).
For `CO/N=C(/C(=O)N[C@@H]1C(=O)N2C(C(=O)[O-])=C(/C=C/C[N+](C)(C)C)SC[C@H]12)c1csc(N)n1`, in that order: 1.2 µg/mL (≈ 2.5 µM) and 0.19 µg/mL (≈ 0.395 µM).
For `CO/N=C(/C(=O)N[C@@H]1C(=O)N2C(C(=O)[O-])=C(/C=C\C[N+](C)(C)C)SC[C@H]12)c1csc(N)n1`, the MIC against Staphylococcus sp. is 10 µg/mL (≈ 20.8 µM); with Enterobacteriaceae it was 1 µg/mL (≈ 2.08 µM).
For `CO/N=C(/C(=O)N[C@@H]1C(=O)N2C(C(=O)[O-])=C(/C=C/c3cccc(C[n+]4ccccc4)c3)SC[C@H]12)c1csc(N)n1`, the MIC in the test on Staphylococcus sp. stood at 2.5 µg/mL (≈ 4.34 µM); against Enterobacteriaceae, 8 µg/mL (≈ 13.9 µM).
For `CO/N=C(/C(=O)N[C@@H]1C(=O)N2C(C(=O)O)=C(/C=C/C=C/C[n+]3cccc4ccsc43)SC[C@H]12)c1csc(N)n1.O=C([O-])C(F)(F)F`, in that order: 0.38 µg/mL and 0.12 µg/mL.
In the case of `CO/N=C(/C(=O)N[C@@H]1C(=O)N2C(C(=O)[O-])=C(/C=C/c3cc[n+](C)cc3)SC[C@H]12)c1csc(N)n1`, the MIC in the test on Staphylococcus sp. came out at 0.8 µg/mL (≈ 1.6 µM); in the test with Enterobacteriaceae, 0.3 µg/mL (≈ 0.599 µM).
For the molecule `CO/N=C(/C(=O)N[C@@H]1C(=O)N2C(C(=O)[O-])=C(/C=C/C#CC[n+]3ccccc3)SC[C@H]12)c1csc(N)n1`, the figures for the MIC against Staphylococcus sp. and against Enterobacteriaceae were 5 µg/mL (≈ 9.53 µM) and 0.4 µg/mL (≈ 0.763 µM), respectively.
`CO/N=C(/C(=O)N[C@@H]1C(=O)N2C(C(=O)[O-])=C(/C=C/c3ccc(C[n+]4ccccc4)o3)SC[C@H]12)c1csc(N)n1`: the values for the minimal inhibitory concentration (MIC) in the test with Staphylococcus sp. and in the test with Enterobacteriaceae were 6.3 µg/mL (≈ 11.1 µM) and 5.9 µg/mL (≈ 10.4 µM), respectively.
Take `CO/N=C(/C(=O)N[C@@H]1C(=O)N2C(C(=O)[O-])=C(/C=C/C[n+]3cccc4ccsc43)SC[C@H]12)c1csc(N)n1`: the figures for the MIC with Staphylococcus sp. and against Enterobacteriaceae were 0.12 µg/mL (≈ 0.216 µM) and 0.03 µg/mL (≈ 0.0539 µM), respectively.
